Results reported in patent publication US8394952B2 (Vertex Pharmaceuticals Incorporated, priority 2006, dated 2013).

How the values were obtained:
Plk1 [1] = molecular target: T1, Plk1 (Homo sapiens, UniProt P53350); assay: Plk1 inhibition assay (radioactive-phosphate incorporation); settings: for activity in the Plk1 radioactive incorporation assay (in words): test compound typically starting from 10 μM; for solubility under the Plk1 assay conditions: Plk1 radioactive incorporation assay conditions
T1 sequence (P53350 20-338): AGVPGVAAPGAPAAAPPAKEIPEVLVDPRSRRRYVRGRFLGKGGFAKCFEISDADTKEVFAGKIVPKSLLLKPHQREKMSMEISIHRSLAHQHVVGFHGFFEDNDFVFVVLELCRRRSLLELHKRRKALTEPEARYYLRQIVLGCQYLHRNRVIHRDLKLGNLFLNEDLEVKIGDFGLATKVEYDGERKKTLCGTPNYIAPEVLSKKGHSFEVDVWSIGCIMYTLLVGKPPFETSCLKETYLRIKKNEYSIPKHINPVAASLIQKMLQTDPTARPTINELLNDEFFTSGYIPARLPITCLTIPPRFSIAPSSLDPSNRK

Plk1 [2] = molecular target: T1, Plk1; assay: biochemical

SMILES	Ki (Plk1 [2]) [µM]	further results
CCOC(=O)N1CCC(Nc2ncc3c(n2)N(C2CCCC2)CCC(=O)N3C)CC1 [Compound I-13, Ethyl 4-(9-cyclopentyl-6,7,8,9-tetrahydro-5-methyl-6-oxo-5H-pyrimido[4,5-b][1,4]diazepin-2-ylamino)piperidin-1-carboxylate]		activity in the Plk1 radioactive incorporation assay (in words) (Plk1 [1]): not active within the limits of the assay
COc1cc(C(=O)O)ccc1Oc1ncc2c(n1)N(C1CCCC1)CC(C)(C)C(=O)N2C [Compound I-107, 4-(9-cyclopentyl-6,7,8,9-tetrahydro-5,7,7-trimethyl-6-oxo-5H-pyrimido[4,5-b][1,4]diazepin-2-yloxy)-3-methoxybenzoic acid]		activity in the Plk1 radioactive incorporation assay (in words) (Plk1 [1]): not active within the limits of the assay
CNC(=O)c1ccc(Nc2ncc3c(n2)N(C2CCCC2)CC(C)(C)C(=O)N3C)nc1 [Compound I-126, 6-(9-cyclopentyl-6,7,8,9-tetrahydro-5,7,7-trimethyl-6-oxo-5H-pyrimido[4,5-b][1,4]diazepin-2-ylamino)-N-methylpyridine-3-carboxamide]		solubility under the Plk1 assay conditions (Plk1 [1]): not soluble under the assay conditions
CNC(=O)c1ccc(Nc2ncc3c(n2)N(C2CCCC2)CC(C)(C)C(=O)N3C)c(OC(F)(F)F)c1 [Compound I-142, 4-(9-Cyclopentyl-6,7,8,9-tetrahydro-5,7,7-trimethyl-6-oxo-5H-pyrimido[4,5-b][1,4]diazepin-2-ylamino)-N-methyl-3-(trifluoromethoxy)benzamide]		solubility under the Plk1 assay conditions (Plk1 [1]): not soluble under the assay conditions
COc1cc(C(=O)NCCO)ccc1Nc1ncc2c(n1)N(C1CCCC1)CC(C)(C)C(=O)N2C [Compound I-264, 4-(9-cyclopentyl-5,7,7-trimethyl-6-oxo-6,7,8,9-tetrahydro-5H-pyrimido[4,5-b][1,4]diazepin-2-ylamino)-N-(2-hydroxyethyl)-3-methoxybenzamide]	< 0.01	
COc1cc(C(=O)N[C@@H](C)CO)ccc1Nc1ncc2c(n1)N(C1CCCC1)CC(C)(C)C(=O)N2C [Compound I-265]	< 0.01	
COc1cc(C(=O)NC2(CO)CC2)ccc1Nc1ncc2c(n1)N(C1CCCC1)CC(C)(C)C(=O)N2C [Compound I-266]	< 0.01	
COc1cc(C(=O)N[C@@H]2CCCC[C@H]2O)ccc1Nc1ncc2c(n1)N(C1CCCC1)CC(C)(C)C(=O)N2C [Compound I-268, 4-(9-cyclopentyl-5,7,7-trimethyl-6-oxo-6,7,8,9-tetrahydro-5H-pyrimido[4,5-b][1,4]diazepin-2-ylamino)-N-((1R,2R)-2-hydroxycyclohexyl)-3-methoxybenzamide]	< 0.01	
COc1cc(C(=O)NC[C@H](C)O)ccc1Nc1ncc2c(n1)N(C1CCCC1)CC(C)(C)C(=O)N2C [Compound I-270, (S)-4-(9-cyclopentyl-5,7,7-trimethyl-6-oxo-6,7,8,9-tetrahydro-5H-pyrimido[4,5-b][1,4]diazepin-2-ylamino)-N-(2-hydroxypropyl)-3-methoxybenzamide]	< 0.01	
COc1cc(C(=O)N[C@H]2CC[C@H](OC(C)=O)CC2)ccc1Nc1ncc2c(n1)N(C1CCCC1)CC(C)(C)C(=O)N2C [Compound I-280, (1r,4r)-4-(4-(9-cyclopentyl-5,7,7-trimethyl-6-oxo-6,7,8,9-tetrahydro-5H-pyrimido[4,5-b][1,4]diazepin-2-ylamino)-3-methoxybenzamido)cyclohexyl acetate]	< 0.01	

Now from value to compound, other results behind:

Ki (Plk1 [2]) [µM]	SMILES	further results
< 0.01	COc1cc(C(=O)NC(C)C)ccc1Nc1ncc2c(n1)N(C1CCCC1)CC1(CC1)C(=O)N2C [Compound I-263, 4-(9′-cyclopentyl-5′-methyl-6′-oxo-5′,6′,8′,9′-tetrahydrospiro[cyclopropane-1,7′-pyrimido[4,5-b][1,4]diazepine]-2′-ylamino)-N-isopropyl-3-methoxybenzamide]	
< 0.01	COc1cc(C(=O)N[C@H]2CC[C@@H](F)CC2)ccc1Nc1ncc2c(n1)N(C1CCCC1)CC(C)(C)C(=O)N2C [Compound I-267, 4-(9-cyclopentyl-5,7,7-trimethyl-6-oxo-6,7,8,9-tetrahydro-5H-pyrimido[4,5-b][1,4]diazepin-2-ylamino)-N-((1S,4S)-4-fluorocylohexyl)-3-methoxybenzamide]	
< 0.01	COc1cc(C(=O)NC2CC(F)(F)C2)ccc1Nc1ncc2c(n1)N(C1CCCC1)CC1(CC1)C(=O)N2C [Compound I-269, 4-(9′-cyclopentyl-5′-methyl-6′-oxo-5′,6′,8′,9′-tetrahydrospiro[cyclopropane-1,7′-pyrimido[4,5-b][1,4]diazepine]-2′-ylamino)-N-(3,3-difluorocyclobutyl)-3-methoxybenzamide]	
< 0.01	COc1cc(C(=O)NC(C)(C)CO)ccc1Nc1ncc2c(n1)N(C1CCCC1)CC1(CC1)C(=O)N2C [Compound I-271, 4-(9′-cyclopentyl-5′-methyl-6′-oxo-5′,6′,8′,9′-tetrahydrospiro[cyclopropane-1,7′-pyrimido[4,5-b][1,4]diazepine]-2′-ylamino)-N-(1-hydroxy-2-methylpropan-2-yl)-3-methoxybenzamide]	
< 0.01	COc1cc(C(=O)N[C@@H]2CCC[C@H]2O)ccc1Nc1ncc2c(n1)N(C1CCCC1)CC1(CC1)C(=O)N2C [Compound I-272, 4-(9′-cyclopentyl-5′-methyl-6′-oxo-5′,6′,8′,9′-tetrahydrospiro[cyclopropane-1,7′-pyrimido[4,5-b][1,4]diazepine]-2′-ylamino)-N-((1R,2R)-2-hydroxycyclopentyl)-3-methoxybenzamide]	
< 0.01	COc1cc(C(=O)NCCCOC(C)=O)ccc1Nc1ncc2c(n1)N(C1CCCC1)CC(C)(C)C(=O)N2C [Compound I-273, 3-(4-(9-cyclopentyl-5,7,7-trimethyl-6-oxo-6,7,8,9-tetrahydro-5H-pyrimido[4,5-b][1,4]diazepin-2-ylamino)-3-methoxybenzamido)propyl acetate]	
< 0.01	COc1cc(C(=O)NCC(O)C(F)(F)F)ccc1Nc1ncc2c(n1)N(C1CCCC1)CC(C)(C)C(=O)N2C (stereo not shown) [Compound I-278, 4-(9-cyclopentyl-5,7,7-trimethyl-6-oxo-6,7,8,9-tetrahydro-5H-pyrimido[4,5-b][1,4]diazepin-2-ylamino)-3-methoxy-N-(3,3,3-trifluoro-2-hydroxypropyl)benzamide]	
< 0.01	COc1cc(C(=O)NCCF)ccc1Nc1ncc2c(n1)N(C1CCCC1)CC(C)(C)C(=O)N2C [Compound I-279, 4-(9-cyclopentyl-5,7,7-trimethyl-6-oxo-6,7,8,9-tetrahydro-5H-pyrimido[4,5-b][1,4]diazepin-2-ylamino)-N-(2-fluoroethyl)-3-methoxybenzamide]	
< 0.01	COc1cc(C(=O)N[C@@H]2CC[C@@H](O)C2)ccc1Nc1ncc2c(n1)N(C1CCCC1)CC1(CC1)C(=O)N2C [Compound I-282, 4-(9′-cyclopentyl-5′-methyl-6′-oxo-5′,6′,8′,9′-tetrahydrospiro[cyclopropane-1,7′-pyrimido[4,5-b][1,4]diazepine]-2′-ylamino)-N-((1R,3R)-3-hydroxycyclopentyl)-3-methoxybenzamide]	
